In US20190091175A1, “METHOD OF REDUCTION […] TREATING DRAVET SYNDROME” (ZOGENIX INTERNATIONAL LIMITED, priority 2017, published 2019):

Tests used:
[1] = system: self-induced photosensitive seizures; settings: four cases; cited from earlier work
[2] = system: children with refractory epilepsy; settings: 0.5 to 1 mg/kg/day; cited from earlier work
[3] = system: patients with Dravet syndrome; settings: long-term fenfluramine treatment; cited from earlier work
[4] = system: subjects with Dravet syndrome; experiment: Study 1: Phase 3 double-blind placebo-controlled study of liquid fenfluramine formulation (ZX008) in Dravet syndrome; format: in vivo, human
Protocol: The first 119 subjects to be randomized in both identical studies combined were analyzed and reported as Study 1 (FIG. 1), covered by a Statistical Analysis Plan (SAP).
Primary and key secondary endpoints in the Study 1 SAP were pre-determined. All patients were treated twice per day over a period of 14 weeks using an oral syringe to administer the formulation. The treatment period included a two-week titration period and a 12-week maintenance period.
The initial results of Study 1 are outlined below. The randomized, double blind, placebo controlled, Phase 3 study enrolled 119 patients across sites in the United States, Canada, Europe and Australia. The median age of patients was 8 years, the mean age of patients was 9 years (range, 2-18 years) (FIG. 2).
Patients were titrated to their target dose over two weeks, and then remained at that fixed dose for 12 weeks. The mean baseline convulsive seizure frequency across the study groups was approximately 40 seizures per month. 110 (92%) patients completed the study (85% 0.8 mg/kg/day; 100% 0.2 mg/kg/day; 93% placebo).
The mean number of convulsive seizure free days, defined as a day for which diary data are available and no convulsive seizures have been reported, was determined for each treatment group during the Baseline and T+M Periods. Using a parametric analysis, comparisons for the ZX008 groups to placebo were estimated from an ANCOVA model with treatment group (3 levels) and age group (<6 years, ≥6 years) as factors, log baseline number of convulsive seizure free days as a covariate and log convulsive seizure free days (Titration+Maintenance, or Maintenance Period) as response. The mean (SD) number of convulsive seizure free days per 28 days during the Baseline Period was 12.6 (7.68), 15.7 (6.80), and 14.6 (7.59) for the placebo, 0.2 and 0.8 mg/kg/day groups, respectively. […] The mean (SD) number of convulsive seizure free days for the 0.2 mg/kg/day group was 17.9 (8.04) days, which was numerically greater than placebo, but was not statistically significant (p=0.514). […]

[5] = system: pattern sensitivity-induced seizures; settings: one child; cited from earlier work

CCNC(C)Cc1cccc(C(F)(F)F)c1 (racemic) [Fenfluramine, (RS)-N-ethyl-1-[3-(trifluoromethyl)phenyl]propan-2-amine]
response of self-induced photosensitive seizures [1]: responded to treatment | effect on number of seizures [2]: reduction in the number of seizures | heart valve defects by echocardiography [3]: No clinically relevant defects were identified | subjects with an adverse event leading to study termination / discontinuation ([4]; 0.8 mg/kg/day group): Five | tolerability ([4]; oral, 0.2 and 0.8 mg/kg/day, 14 weeks): generally well-tolerated | prospective cardiac safety monitoring (clinical, echocardiographic) ([4]; throughout the study): no clinical or echocardiographic evidence of cardiac valvulopathy or pulmonary hypertension | effect on self-induced seizures resistant to anticonvulsive treatment [5]: successfully terminated these self-induced seizures
